Reference: ChEMBL document CHEMBL1125233, “2,4-Diamino-5-benzylpyrimidines as antibacterial agents. 14. 2,3-Dihydro-1-(2,4-diamino-5-pyrimidyl)-1H-indenes as conformationally restricted analogues of trimethoprim” (J Med Chem, 1991)
pIC50: −log10 of the molar value.

Assays:
[1] = target: T1, Dihydrofolate reductase (Rattus norvegicus, UniProt Q920D2); experiment: Inhibitory activity against rat liver dihydrofolate reductase at 10e8 M; settings: read-out: I50
T1 sequence (Q920D2 whole entry): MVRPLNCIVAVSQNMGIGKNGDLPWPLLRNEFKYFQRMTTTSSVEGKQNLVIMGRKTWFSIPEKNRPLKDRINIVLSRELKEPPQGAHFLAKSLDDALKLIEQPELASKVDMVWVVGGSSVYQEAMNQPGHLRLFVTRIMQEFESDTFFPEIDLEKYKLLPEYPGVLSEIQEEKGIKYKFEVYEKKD

[2] = target: Dihydrofolate reductase (Neisseria gonorrhoeae, UniProt P04174); experiment: Inhibitory activity against Neisseria gonorrhoeae dihydrofolate reductase at 10e8 M; settings: read-out: I50
Chain of Dihydrofolate reductase (Neisseria gonorrhoeae, UniProt P04174) (P04174 whole entry): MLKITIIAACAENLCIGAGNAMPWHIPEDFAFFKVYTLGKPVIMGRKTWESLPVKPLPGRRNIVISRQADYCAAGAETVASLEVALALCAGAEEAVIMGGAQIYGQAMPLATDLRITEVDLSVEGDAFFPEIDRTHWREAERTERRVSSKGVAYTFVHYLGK

| pIC50 [1] | pIC50 [2] | Compound |
| --- | --- | --- |
| 4.15 | – | COc1ccc(Cc2cnc(N)nc2N)cc1OC [DIAVERIDINE] |
| 3.39 | 5.01 | COc1cc2c(cc1OC)C(c1cnc(N)nc1N)CC2 (stereo not drawn) |
